Among the data in patent publication US20240122180A1, “FUNGICIDAL HALOMETHYL KETONES AND HYDRATES AND THEIR MIXTURES” (FMC Corporation, priority 2020, published 2024) are pest or weed control and melting point values, retold here.

In series [1] the test system is Blumeria graminis f. sp. tritici (the causal agent of wheat powdery mildew). The series can be described thus: Test E: preventive spray on wheat seedlings, visual disease rating (100 = 100% control; * 50 ppm, ** 10 ppm, *** 250 ppm). The class given is in vivo. The following applies: Blumeria graminis, 250 ppm test suspension, 100 = 100% disease control. In short, it runs like this:
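Test suspension (3% acetone, acetone/water 50/50, 250 ppm PEG400) sprayed to run-off on wheat seedlings; inoculated next day with powdery mildew spore dust and kept 8 days at 20 °C. Visual rating, 100 = full and 0 = no control relative to untreated.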

For series [2], the system named is Zymoseptoria tritici (the causal agent of wheat leaf blotch). In words: Test D: preventive spray on wheat seedlings, disease rating (100 = 100% control; * 50 ppm, ** 10 ppm, *** 250 ppm). The following applies: Zymoseptoria tritici, 250 ppm test suspension, 100 = 100% disease control. In kind it is in vivo. In short, it runs like this:
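Compounds first dissolved in acetone (3% of final volume), then suspended in 50/50 acetone/water with 250 ppm PEG400 and sprayed to run-off on wheat seedlings; Z. tritici spores inoculated next day. Incubated saturated at 24° C. 48 h, then 20° C. 17 days; disease control rated 0–100 versus controls.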

Series [3] concerns Puccinia recondita f. sp. tritici (the causal agent of wheat leaf rust). The series can be described thus: Test B: preventive spray on wheat seedlings, disease rating (100 = 100% control; * 50 ppm, ** 10 ppm, *** 250 ppm). In kind it is in vivo. The following applies: Puccinia recondita, 100 = 100% disease control; for pest or weed control at 10 ppm: 10 ppm test suspension; for pest or weed control at 50 ppm: 50 ppm test suspension. In a few lines: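 Wheat seedlings sprayed to run-off with compound in acetone/water (50/50) containing 250 ppm PEG400, inoculated next day with Puccinia recondita f. sp. tritici spores. Held 24 h saturated at 20° C, then 6 days at 20° C; disease control rated 0–100 relative to controls.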

In series [4] the test system is Phakopsora pachyrhizi (the causal agent of Asian soybean rust). The series can be described thus: Test F: Compound 32 or 64 alone and in mixtures on soybean seedlings, observed (Obsd) and Colby expected (Exp) disease control. In kind it is in vivo. The conditions noted are these: for pest or weed control at 1.422 ppm: Compound 32 1.422 ppm alone; for pest or weed control at 2.276 ppm: Compound 32 2.276 ppm alone.

In series [5] the test system is Uncinula necator (the causal agent of grape powdery mildew). In words: Test C: preventive spray on grape seedlings, disease rating (100 = 100% control; * 50 ppm, ** 10 ppm, *** 250 ppm). In kind it is in vivo. The following applies: Erysiphe necator, 100 = 100% disease control. In a few lines:
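Grape seedlings sprayed to run-off with compound suspended in acetone/water (50/50) with 250 ppm PEG400, then inoculated next day with Uncinula necator spores. Kept at 20 °C for 12 days before disease rating, where 100 is full control and 0 none, relative to untreated controls.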

For series [6], the system named is Phakopsora pachyrhizi (the causal agent of Asian soybean rust). The series can be described thus: Test A: preventive spray on soybean seedlings, visual disease rating (100 = 100% control; * 50 ppm, ** 10 ppm, *** 250 ppm). In kind it is in vivo. The conditions noted are these: Phakopsora pachyrhizi, 100 = 100% disease control, 0 = no control; for pest or weed control at 10 ppm: 10 ppm test suspension. In a few lines:
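Soybean seedlings sprayed to run-off with compound suspended in acetone/water with 250 ppm PEG400 surfactant, inoculated next day with P. pachyrhizi spores. Kept 24 h saturated at 22 °C, then 8 days at 22 °C before visual rating of disease control (0-100) relative to controls.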

Where [7] appears, read: Phakopsora pachyrhizi, Table B-1.
Setting [8] is: Phakopsora pachyrhizi, Table C-1.
Where [9] appears, read: Phakopsora pachyrhizi, Table D-1.
Where [10] appears, read: Phakopsora pachyrhizi, Table F-1.
[11] abbreviates: Phakopsora pachyrhizi, Table G-1.
[12] abbreviates: Phakopsora pachyrhizi, Table H-1.
[13] abbreviates: Phakopsora pachyrhizi, Table I-1.

The term pest or weed control denotes how far the test organism was held down. The term melting point denotes the temperature, or range, at which the solid turns liquid. With `CCO/C(=C\Oc1ccc(Cn2cc(C(=O)OCc3ccccc3)cn2)cc1)C(F)(F)F` [Compound 186, phenylmethyl 1-[[4-[[(1Z)-2-ethoxy-3,3,3-trifluoro-1-propen-1-yl]oxy]phenyl]methyl]-1H-pyrazole-4-carboxylate], the melting point is 63 to 67 °C. Further, the pest or weed control at 250 ppm in series [1] (wheat seedlings) is 84%. The same compound showed a pest or weed control at 250 ppm in series [2] (wheat seedlings) of 9%. This compound also gave a pest or weed control at 10 ppm in series [3] (wheat seedlings) of 0%.

On to `CCOC(=O)c1cnn(Cc2ccc(OCC3(C(F)(F)F)OCCO3)cc2)c1` [Compound 32, ethyl 1-[[4-[[2-(trifluoromethyl)-1,3-dioxolan-2-yl]methoxy]phenyl]methyl]-1H-pyrazole-4-carboxylate], for which the pest or weed control at 250 ppm in series [1] (wheat seedlings) turned out to be 97%; in series [2] (wheat seedlings) it was 89%. In addition, the pest or weed control at 50 ppm in series [3] (wheat seedlings) is 68%. In addition, the pest or weed control at 1.422 ppm worked out at 78% in series [4] (Table E-1); 55% in series [4] (setting [7]); 39% in series [4] (setting [8]); 52% in series [4] (setting [9]); 75% in series [4] (setting [10]); 39% in series [4] (setting [11]). The pest or weed control at 1.422 ppm in series [4] (setting [12]) was found to be 69%; in series [4] (setting [13]), 63%. Also, the pest or weed control at 2.276 ppm is 80% in series [4] (Table E-1); 64% in series [4] (setting [7]); 44% in series [4] (setting [8]); 60% in series [4] (setting [9]); 77% in series [4] (setting [10]); 61% in series [4] (setting [11]). Moreover, the pest or weed control at 2.276 ppm in series [4] (setting [12]) is 63%; in series [4] (setting [13]) it was 71%. Further, the pest or weed control at 10 ppm in series [5] (10 ppm test suspension (**), grape seedlings) is 100%.

Turning to `O=C(NCC1CC1)c1csc(Cc2ccc(OCC3(C(F)(F)F)OCCO3)cc2)n1` [Compound 71, N-(cyclopropylmethyl)-2-[[4-[[2-(trifluoromethyl)-1,3-dioxolan-2-yl]methoxy]phenyl]-methyl]thiazole-4-carboxamide], the melting point is 88 to 92 °C. Besides, the pest or weed control at 10 ppm in series [3] (wheat seedlings) is 96%.

Compound `OC(O)(COc1cccc(Cn2cc(Br)cn2)c1)C(F)(F)F` [compound 386] yielded a melting point of 83.7 to 86.5 °C. In series [3] (0 = no control), this compound displayed a pest or weed control at 10 ppm of 19%. This compound had a pest or weed control at 10 ppm in series [6] of 84%.

Take `CCOC(=O)c1cnn(Cc2c(F)c(F)c(OCC3(C(F)(F)F)OCCO3)c(F)c2F)c1` [compound 392]: the melting point lay in the range of 59 to 62 °C. In series [3] (0 = no control), this compound displayed a pest or weed control at 10 ppm of 19%. The compound also yielded a pest or weed control at 10 ppm in series [6] of 97%.

`CCOC(=O)c1cnn(Cc2cnn(CC(O)(O)C(F)(F)F)c2)c1` [compound 368] displayed a melting point of 81 to 84 °C. This compound gave a pest or weed control at 250 ppm in series [1] (0 = no control) of 0%. For the same compound, the pest or weed control at 250 ppm in series [2] (0 = no control) came to 0%. The pest or weed control at 50 ppm in series [3] (0 = no control) was 0%. For the same compound, the pest or weed control at 50 ppm in series [6] (50 ppm test suspension) was determined as 0%. In series [5] (250 ppm test suspension, 0 = no control), this compound displayed a pest or weed control at 250 ppm of 33%.
